From PubChem BioAssay (NCI) come the findings set out here.

Several values for one entry are separate records, joined by “and”; a condition that tells them apart may be missing. Equal entries are not always repeated.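 Briefly, cells in 96-well plates were exposed to five compound concentrations for 48 h, and endpoints were estimated by linear interpolation. The concentration for 50% growth inhibition is given as GI50. The concentration for full growth arrest is given as TGI.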

Test systems include ACHN renal; CAKI-1 renal; CCRF-CEM leukemia; COLO 205 colon; DU-145 prostate; EKVX NSCLC; HOP-92 NSCLC; KM12 colon; MCF7 breast; MDA-MB-231 breast; MOLT-4 leukemia; NCI-H226 lung; SNB-19 CNS; SW-620 colon; T-47D breast; NCI-H522 lung; SF-268 CNS.
What all share (test): NCI anticancer screen, dose series, 48 h

Regarding `COc1ccc(/C=N/n2c(Cc3ccc(Cl)cc3)n[nH]c2=O)cc1`, the TGI in the assay with ACHN renal, in the assay on CAKI-1 renal, with CCRF-CEM leukemia, in the assay on COLO 205 colon, in the assay with DU-145 prostate and with EKVX NSCLC was over 100 µM throughout. Besides, the TGI is 44.7 µM in the assay with HOP-92 NSCLC; over 100 µM with KM12 colon; over 100 µM in the assay with MCF7 breast; 26.6 µM in the assay with MDA-MB-231 breast; over 100 µM in the assay on MOLT-4 leukemia; over 100 µM in the assay with NCI-H226 lung. In addition, the TGI with SNB-19 CNS is 35.6 µM; in the assay on SW-620 colon, over 100 µM; in the assay on T-47D breast, over 100 µM.

For the compound `C(/C=N/NC1=NCCN1)=N\NC1=NCCN1`, the TGI in the assay with ACHN renal, in the assay with CAKI-1 renal, in the assay on CCRF-CEM leukemia, with COLO 205 colon, with EKVX NSCLC and in the assay with HOP-92 NSCLC was over 100 µM each time. In addition, the TGI with KM12 colon, in the assay with MCF7 breast, in the assay on MDA-MB-231 breast, in the assay on MOLT-4 leukemia, in the assay with NCI-H226 lung and in the assay on NCI-H522 lung was over 100 µM each time. Further, the TGI with SF-268 CNS, in the assay on SNB-19 CNS, in the assay on SW-620 colon and with T-47D breast was over 100 µM each time.

Take `CC(=O)NC1CCC(NC(=O)OC(C)(C)C)C(NC(=O)OC(C)(C)C)C1` (stereo not drawn): the TGI with ACHN renal, in the assay with CAKI-1 renal, in the assay with CCRF-CEM leukemia, in the assay with COLO 205 colon, with DU-145 prostate and with HOP-92 NSCLC was over 100 µM in each case. Moreover, the TGI in the assay on KM12 colon, with MCF7 breast, in the assay on MDA-MB-231 breast, in the assay with MOLT-4 leukemia, with NCI-H226 lung and in the assay on NCI-H522 lung was over 100 µM throughout. In addition, the TGI in the assay on SF-268 CNS, in the assay with SNB-19 CNS, in the assay with SW-620 colon and with T-47D breast was over 100 µM each time.

With `O=[N+]([O-])c1cccc2nc3ccccc3c(NCCNCCO)c12`, the TGI in the assay on ACHN renal is 0.0422 µM and 0.0311 µM; with CAKI-1 renal, 0.088 µM; in the assay on CCRF-CEM leukemia, 0.101 µM and 0.0455 µM; in the assay on COLO 205 colon it was 0.0106 µM and 0.0213 µM; with EKVX NSCLC, 0.286 µM and 0.181 µM; in the assay on HOP-92 NSCLC, 0.0237 µM. The TGI with KM12 colon is 0.0277 µM and 0.0202 µM; in the assay with MCF7 breast it was 0.0373 µM and 0.0177 µM; in the assay with MDA-MB-231 breast it was 0.0668 µM and 0.0816 µM; with MOLT-4 leukemia it was 0.0891 µM and 0.0113 µM; in the assay on NCI-H226 lung it was 0.0495 µM and 0.0261 µM; in the assay with NCI-H522 lung it was 0.00272 µM. The TGI with T-47D breast is 0.101 µM and 0.0533 µM. Further, the GI50 with EKVX NSCLC is 0.0306 µM; with SNB-19 CNS it was 0.0102 µM.

In the case of `Cc1ccc(NC(=S)NNC(=O)c2cc(-c3ccccc3)nc3ccccc23)cc1C`, the TGI with ACHN renal was 67.6 µM; with CAKI-1 renal, over 100 µM; in the assay with CCRF-CEM leukemia, 52 µM; with COLO 205 colon, 34.2 µM; with DU-145 prostate it was 45.4 µM; in the assay with HOP-92 NSCLC, 48.8 µM. Besides, the TGI with KM12 colon worked out at 80 µM; with MCF7 breast, 47.8 µM; in the assay on MDA-MB-231 breast it was 57.7 µM; in the assay with MOLT-4 leukemia, 53.3 µM; in the assay with NCI-H226 lung it was 90.1 µM; in the assay on NCI-H522 lung, 50.8 µM. In addition, the TGI was over 100 µM in the assay on SF-268 CNS, 93.2 µM in the assay with SNB-19 CNS, over 100 µM in the assay on SW-620 colon and 8.41 µM with T-47D breast.

Take `c1ccc(-c2cc(-c3cc(-c4ccccc4)n[nH]3)[nH]n2)cc1`: the TGI in the assay with ACHN renal, in the assay on CAKI-1 renal, in the assay on CCRF-CEM leukemia, in the assay with COLO 205 colon, with DU-145 prostate and in the assay with EKVX NSCLC was over 100 µM each time. Besides, the TGI in the assay with KM12 colon, with MCF7 breast, in the assay on MDA-MB-231 breast, in the assay on MOLT-4 leukemia, in the assay with NCI-H226 lung and in the assay with NCI-H522 lung was over 100 µM throughout. Further, the TGI in the assay on SF-268 CNS, with SNB-19 CNS and in the assay with T-47D breast was over 100 µM throughout.

Turning to `CC1CSc2nc3[nH]c(=S)[nH]c3c(=O)n2C1` (stereo not drawn), the TGI with ACHN renal, with CAKI-1 renal, in the assay on CCRF-CEM leukemia, with COLO 205 colon, with DU-145 prostate and with EKVX NSCLC was over 100 µM throughout. Further, the TGI in the assay with KM12 colon, in the assay with MCF7 breast, in the assay on MDA-MB-231 breast, with MOLT-4 leukemia, in the assay on NCI-H226 lung and in the assay on SF-268 CNS was over 100 µM each time. Further, the TGI with SNB-19 CNS, with SW-620 colon and in the assay on T-47D breast was over 100 µM each time.

In the case of `COc1ccc(/C=N/n2c(C)n[nH]c2=O)cc1`, the TGI in the assay on ACHN renal, in the assay with CAKI-1 renal, with CCRF-CEM leukemia, in the assay on COLO 205 colon, in the assay on DU-145 prostate and in the assay with EKVX NSCLC was over 100 µM each time. Also, the TGI in the assay on KM12 colon, in the assay on MCF7 breast, in the assay on MDA-MB-231 breast, with MOLT-4 leukemia, in the assay with NCI-H226 lung and with SF-268 CNS was over 100 µM throughout. In addition, the TGI in the assay on SNB-19 CNS, in the assay with SW-620 colon and in the assay with T-47D breast was over 100 µM throughout.

Turning to `Cc1cc2nc3c(C(O)CO)nn(-c4ccccc4)c3nc2cc1C` (stereo not drawn), the TGI came out at 32.1 µM in the assay on ACHN renal; 33.2 µM in the assay on CAKI-1 renal; 33.1 µM in the assay with DU-145 prostate; 63.4 µM in the assay with EKVX NSCLC; 45.4 µM in the assay on HOP-92 NSCLC; 33.4 µM in the assay with KM12 colon. The TGI in the assay with MCF7 breast is 47.3 µM; in the assay with MDA-MB-231 breast it was 55 µM; with MOLT-4 leukemia it was over 100 µM; in the assay with NCI-H226 lung it was 98.2 µM; with NCI-H522 lung it was 68 µM; in the assay with SF-268 CNS, 63.3 µM. The TGI worked out at 56.1 µM with SNB-19 CNS, 55.4 µM with SW-620 colon and 91.5 µM in the assay with T-47D breast.
